“And” between values parts separate entries of the source, which are not always exact repeats. Equal values may be shown once.

This assay relates to eyes of patients with presbyopia. Nature of the assay: Clinical trial: near vision on Rosenbaum chart with Jaeger notation. The class given is in vivo, human. The following applies: one hour after instillation; for JAEGER- 2 (Jaeger scale, near vision): one drop, synergistic mixture in non-dominant eye, pilocarpine or brimonidine dilution in dominant eye, 11 patients, baseline 5.82; for WINNED LINES (lines gained in the reading primer with Jaeger's notation): synergistic combination in non-dominant eye, comparators in dominant eye. Here is the method:
A composition was prepared where patients with presbyopia symptoms were selected. This study was approved by the ethics committee of Optall Vision Eye Center in Mexico City. All patients signed and gave their consent to participate in such study.
For the study, patients with presbyopia, with a corrected visual acuity of 20/25 or better, were included. The diagnosis of presbyopia was determined without correcting near vision acuity was equal to or less than 3 on the Jaeger scale on the Rosenbaum chart improving at least 2 on the Jaeger scale with the use of at least +1.00 D. Age, gender, ocular dominance, uncorrected visual acuity (UCVA), corrected near visual acuity (BNCVA) intraocular pressure with Goldmann applanation tonometer (IOP), pupil diameter under photopic and scotopic conditions (PD), slit lamp biomicroscopic examination and a fundus examination were recorded.
The ophthalmic composition comprised a single low concentration dose of pilocarpine, brimonidine, oxymetazoline/sodium hyaluronate, bromfenac and/or at least one vasoconstrictor and at least one pharmaceutically acceptable vehicle. From said combination, one drop of the synergistic mixture was applied and instilled in the nondominant eye and one drop of pilocarpine or brimonidine dilution was alternately instilled in the dominant eye of consecutive patients. After one hour, uncorrected visual acuity (UCVA), corrected visual acuity (BCVA), uncorrected near visual acuity (UNVA), corrected near visual acuity (BCNVA), intraocular pressure (IOP), pupil diameter (PD), visual analog pain scale (VAS) was measured from 0 to 10. Hyperemia was measured from 1 to 4.
Statistical analyses were performed with SPSS using Pearson's and Spearman's correlation analysis.
The type of modern Jaeger eye chart scale used generally ranges from J10 (approximately 14 points for Times New Roman typeface) to J1 (approximately 3 points, Times New Roman typeface). The chart moves back and forth until you can read a certain font size.

`Brc1c(NC2=NCCN2)ccc2nccnc12` [Brimonidine, brimonidine]: the “JAEGER- 2 (Jaeger scale, near vision)” value is 3.50±−1.761 and 3.5; the “WINNED LINES (lines gained in the reading primer with Jaeger's notation)” value (“WINNED LINES” below) is listed as 2.33. Moreover, for the setting “listed as brimonidine”, the “WINNED LINES” value is reported as 2.33±−2.50.
`CC[C@@H]1C(=O)OC[C@@H]1Cc1cncn1C` [Pilocarpine, pilocarpine]: the “JAEGER- 2 (Jaeger scale, near vision)” value stood at 4.2 and the “WINNED LINES” value came to 1.6. Also, where the note is “listed as pilocarpine”, the “JAEGER- 2 (Jaeger scale, near vision)” value was 4.20±−1.483 and the “WINNED LINES” value turned out to be 1.60±−089.
